The target in the assay is T1, Tyrosine-protein phosphatase non-receptor type 5 (Homo sapiens, UniProt P54829).
T1 sequence (P54829 whole entry): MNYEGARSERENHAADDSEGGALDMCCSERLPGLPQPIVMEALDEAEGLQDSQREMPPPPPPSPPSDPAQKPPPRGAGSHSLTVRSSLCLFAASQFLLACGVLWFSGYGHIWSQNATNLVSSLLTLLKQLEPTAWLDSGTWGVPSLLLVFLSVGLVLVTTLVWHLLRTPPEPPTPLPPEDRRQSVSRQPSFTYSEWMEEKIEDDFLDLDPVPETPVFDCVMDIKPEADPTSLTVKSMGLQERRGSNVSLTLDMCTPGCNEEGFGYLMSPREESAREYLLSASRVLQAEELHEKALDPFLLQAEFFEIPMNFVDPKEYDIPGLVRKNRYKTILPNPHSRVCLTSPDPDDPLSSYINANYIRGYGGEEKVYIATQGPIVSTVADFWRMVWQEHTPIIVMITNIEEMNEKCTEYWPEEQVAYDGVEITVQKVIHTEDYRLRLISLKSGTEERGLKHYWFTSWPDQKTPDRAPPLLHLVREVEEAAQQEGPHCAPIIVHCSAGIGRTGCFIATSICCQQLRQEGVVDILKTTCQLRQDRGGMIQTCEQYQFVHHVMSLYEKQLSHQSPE
The experiment in a line: PTPN5 inhibition measured colorimetrically – biochemical, colorimetric absorbance, orthogonal assay for STEP inhibitor project, dose response (AID 624207).

[1] abbreviates: inactive by the depositor's call.

Molecules are shown by their SMILES.

Results on 44 compounds are retold here after BindingDB's records for doi:10.7270/Q2KH0KWR (Burnham Center For Chemical Genomics, 2012).

As a reminder, the IC50 is the midpoint of a concentration-inhibition curve. In turn, `COCCCN(C(S)=Nc1c(C)cc(C)cc1C)C(C)c1ccccn1` (centres undefined) [1-(3-methoxypropyl)-1-[1-(2-pyridinyl)ethyl]-3-(2,4,6-trimethylphenyl)thiourea] yielded an IC50 above 80 µM.

Regarding `COc1ccc(NC(=O)c2cc(=O)c3ccccc3o2)cc1Cl`, the IC50 was above 80 µM. As to `NC(=O)C1(N2CCCCC2)CCN(C(=S)Nc2ccc(S(N)(=O)=O)cc2)CC1` [1'-({[4-(aminosulfonyl)phenyl]amino}carbonothioyl)-1,4'-bipiperidine-4'-carboxamide], the IC50 under setting [1] was 25.9 µM. The same measure, in the same setting: then `Cc1c(CC(=O)NCCCCCC(=O)O)c(=O)oc2c(C)c3oc4c(c3cc12)CCCC4` [MLS001214831], with 32.1 µM.

With `CCN(c1ccccc1)S(=O)(=O)c1cc(C(=O)OC(C)C(=O)Nc2ccc3c(c2)OCCO3)ccc1C` (centres undefined) [SMR000242949], the IC50 is above 80 µM. Still for that read-out and setting: then `C=CC1=C(C(=O)O)N2C(=O)C(NC(=O)Cc3ccccc3)C2SC1` (centres undefined) [MLS000123928], with above 80 µM. In turn, `CCOC(=O)N1CCC(N(CCN(C)C)C(=S)Nc2cc(Cl)ccc2C)CC1` [ethyl 4-[(5-chloranyl-2-methyl-phenyl)carbamothioyl-[2-(dimethylamino)ethyl]amino]piperidine-1-carboxylate] gave an IC50 under setting [1] of 77.1 µM. This counts as double-digit micromolar. Consider `O=C(NC1CCCCCC1)C(=S)NC1CCCCC1` [SMR000296231], for which the IC50 was above 80 µM. Take `CCOC(=O)N1CCC(N(CCN(C)C)C(=S)Nc2ccc(Oc3ccccc3)cc2)CC1` [SMR000311544]: the IC50 under setting [1] came out at 27 µM. As for `Nc1ccc2c(O)cc(S(=O)(=O)O)cc2c1`, the concentration for half-maximal inhibition (IC50) was above 80 µM. Under setting [1], `CCN1CCN(C(=S)c2ccc(Br)cc2)CC1` [SMR000198085] displayed an IC50 of 63.9 µM.

For `Cc1ccc(S(=O)(=O)N2CCCCC2)cc1NC(=O)c1ccc(=O)[nH]c1`, the IC50 is above 80 µM. As for `Cc1cc(C)c2nc(-c3ccccn3)cc(C(=O)Nc3ccc(S(=O)(=O)Nc4onc(C)c4C)cc3)c2c1` [MLS000862518], the IC50 under setting [1] is 42 µM. On to `COc1ccc(NC(=S)N(CCCN2CCC(C)CC2)Cc2cccs2)cc1Cl` [MLS000729725], for which the IC50 was above 80 µM. The compound `COc1cc(/C=C2/C(=O)NN(c3cccc(C)c3)C2=O)cc([N+](=O)[O-])c1O` [4-(4-hydroxy-3-methoxy-5-nitrobenzylidene)-1-(3-methylphenyl)-3,5-pyrazolidinedione] gave an IC50 above 80 µM. `CN1CCC2(CC1)N=C(c1ccc(F)cc1)C(=S)N2` yielded an IC50 under setting [1] of 71.7 µM. Regarding `Cc1c(CC(=O)O)c(=O)oc2c(C)c(OCc3ccc(F)cc3Cl)ccc12` [MLS001213411], the IC50 under setting [1] turned out to be 23.8 µM. Consider `O=C(CSc1nc(-c2ccc(F)cc2)nc2c1Cc1ccccc1O2)Nc1cccc(C(=O)O)c1` [3-[({[2-(4-fluorophenyl)-5H-chromeno[2,3-d]pyrimidin-4-yl]thio}acetyl)amino]benzoic acid], for which the IC50 was 1.55 µM. Turning to `S=C(NCCc1ccccc1)Nc1c(Cl)cccc1Cl` [1-(2,6-dichlorophenyl)-3-(2-phenylethyl)thiourea], under setting [1], the IC50 worked out at 41.2 µM.

In turn, `Cc1c(CCC(=O)O)c(=O)oc2c(C)c(OCc3ccccc3Cl)ccc12` [3-[7-[(2-chlorophenyl)methoxy]-4,8-dimethyl-2-oxochromen-3-yl]propanoic acid] came in with an IC50 of 6.4 µM. For `O=C(COc1ccc(/C=N/NC(=O)c2ccccc2O)cc1)Nc1ccccc1` [N-[(E)-[4-(2-anilino-2-oxoethoxy)phenyl]methylideneamino]-2-hydroxybenzamide], under setting [1], the IC50 was 23.6 µM. As for `O=C(O)c1ccc2c(c1)C(=O)N(c1cccc(-c3nc4ccccc4s3)c1)C2=O` [2-[3-(1,3-benzothiazol-2-yl)phenyl]-1,3-bis(oxidanylidene)isoindole-5-carboxylic acid], the IC50 is above 80 µM.

With `CCOC(=O)c1sc2nc3c(SCC(=O)O)cc(C(=O)c4ccccc4O)cn3c(=O)c2c1C` [MLS-0266851.0001], the IC50 was above 80 µM. Under setting [1], `Cc1ccc(C(=S)N2CCN(Cc3ccccc3)CC2)s1` [(5-methyl-2-thiophenyl)-[4-(phenylmethyl)-1-piperazinyl]methanethione] displayed an IC50 of 32 µM.

In turn, `CCCN(CC(=O)Nc1ccccc1OC)C(=O)Cc1ccc2c(c1)CCC2` [2-(2,3-dihydro-1H-inden-5-yl)-N-[2-[(2-methoxyphenyl)amino]-2-oxidanylidene-ethyl]-N-propyl-ethanamide] gave an IC50 under setting [1] of 57 µM. In the case of `Cc1c(CC(=O)O)c(=O)oc2c(C)c(OCc3ccccc3Br)ccc12` [2-[7-[(2-bromophenyl)methoxy]-4,8-dimethyl-2-oxochromen-3-yl]acetic acid], the IC50 under setting [1] is 26.3 µM. On the same count and under the same terms, then `CCOc1ccc(/C=N/NC(=O)c2cc3c(OC)cccc3[nH]2)cc1` [MLS001216500], with 28.5 µM.

Take `S=c1[nH]nc(-c2cccnc2)n1N=Cc1ccc(Br)s1` [4-[(E)-(5-bromothiophen-2-yl)methylideneamino]-3-pyridin-3-yl-1H-1,2,4-triazole-5-thione]: the IC50 was above 80 µM. On the same count and under the same terms, then `Cc1ccc(-c2nc3ncccc3o2)cc1NC(=O)CC(C)C`, with above 80 µM. The compound `Sc1ncnc2c1ncn2-c1ccc(Cl)cc1` [MLS002638664] showed an IC50 under setting [1] of 64.8 µM. In turn, `CCN1CCN(C(=S)c2ccc(O)cc2)CC1` [MLS000621546] had an IC50 of 33.8 µM. Same read-out and setting: then `Cc1ccc(S(=O)(=O)c2cnc3ccc(Cl)cc3c2O)cc1`, with above 80 µM; and `N=C1S/C(=C\c2ccc(O)cc2)C(=O)N1c1ccc(F)cc1` [SMR000298434], with above 80 µM. `COC(=O)c1ccccc1CSc1nsc(/C=C/N(C)C)c1C#N` [SMR000549393]: the midpoint of inhibition under setting [1], the IC50, lay at 33.5 µM.

In turn, `Cc1cccc(Nc2nn3c(=O)c4ccccc4nc3s2)c1` [2-[(3-methylphenyl)amino]-5H-[1,3,4]thiadiazolo[2,3-b]quinazolin-5-one] yielded an IC50 of 8.34 µM. In the case of `Cn1c(=O)[nH]c(=O)c2c1nc(SCCN1CCCCC1)n2CCCc1ccccc1` [3-methyl-7-(3-phenylpropyl)-8-[2-(1-piperidinyl)ethylthio]purine-2,6-dione], the IC50 under setting [1] came out at 60.5 µM. `O=C(N/N=C/C1C=CC=CC1=O)c1cccc([N+](=O)[O-])c1` (centres undefined) [MLS002667988] yielded an IC50 of 15.8 µM. On to `O=C(NCCCn1ccnc1)C(Cc1ccccc1)N1C(=O)c2ccccc2C1=O` (centres undefined) [MLS000040026], for which, under setting [1], the IC50 was determined as 72.3 µM. As to `CCCCCn1c(N)c(-c2nc3ccccc3o2)c2c([N+](=O)[O-])nn(C)c(=O)c21` [2-amino-1-amyl-3-(1,3-benzoxazol-2-yl)-6-methyl-4-nitro-pyrrolo[2,3-d]pyridazin-7-one], the IC50 was above 80 µM. On the same count and under the same terms, then `CN(C)c1ccc(C(=O)OCC(=O)Nc2ccc(S(N)(=O)=O)cc2)cc1` [4-(dimethylamino)benzoic acid [2-oxo-2-(4-sulfamoylanilino)ethyl] ester], with 7.9 µM; and `CCc1c(C)[nH]n(-c2ccc(Oc3ccccc3)c(S(=O)(=O)O)c2)c1=O` [5-(4-ethyl-5-methyl-3-oxo-1H-pyrazol-2-yl)-2-phenoxybenzenesulfonic acid], with above 80 µM. Still for that read-out and setting: then `COC(=O)Nc1sc2c(c1C(N)=O)CCC(C)C2` (centres undefined) [MLS000683996], with 13.3 µM; and `Cc1ccc(NC(=O)CCn2c(=S)oc3ccccc32)cc1F` [SMR000564947], with above 80 µM. The compound `COc1ccc(NC(=S)N2CCC(N(C)CC3CCCO3)CC2)cc1Cl` (centres undefined) [N-(3-chloranyl-4-methoxy-phenyl)-4-[methyl(oxolan-2-ylmethyl)amino]piperidine-1-carbothioamide] returned an IC50 under setting [1] of 40.3 µM. That is a double-digit micromolar value.
